Assay results taken from patent publication EP4653012A1 (Jiangsu Hengrui Pharmaceuticals Co., Ltd., priority 2023, dated 2024).

Legend:
[1] = system: A549 (human non-small cell lung cancer cells); assay: In vitro cytotoxic activity screening (CTG assay); type: cell-based
Procedure: (§1) In this experiment, the ATP content was determined using CTG to reflect the survival condition of the tumor cells. […] The killing effect of the toxin molecule was then assayed according to this condition.
(§2) According to the purpose of the experiment, two disease models of breast cancer and NSCLC were selected, and three cell strains of SKBR3 tumor cells (HER2+, ATCC, Cat# HTB-30), MDA-MB-468 (HER2-, ATCC, Cat# HTB-132) and A549 (human non-small cell lung cancer cells, ATCC, Cat# CCL-185) were selected for screening.
(§3) The cells were counted, and 4.3 × 10^5, 7.2 × 10^5 and 11.5 × 10^5 cells were each added to a culture solution to give a final volume of 26 mL. 180 µL of cell suspension was added to each well in columns 2 to 11 of a 96-well plate (Corning, Cat# 3903) to give cell densities of 3K, 5K, and 8K per well. Wells in column 12 were each filled with 200 µL of culture solution and the remaining wells were each filled with PBS. The SKBR3 and MDA-MB-468 cells were subjected to the same operations described above. […] 2 mM stock solution (stock solution diluted 10-fold in DMSO) was prepared in column 1 of drug preparation plate 1, and then 10-fold gradient dilution in DMSO was performed through column 10, and the wells in column 11 were filled with DMSO. 95 µL of corresponding culture solution was added into each well from column 2 to column 11 of the drug preparation plate 2, and 5 µL of solution was pipetted from column 2 to column 11 of drug preparation plate 1 to drug preparation plate 2. The solution was mixed well, and 20 µL of solution was pipetted and added into the plated cells. The cells were then cultured for 3 days and 5 days. • 4) CTG assay (Cell Titer-GloTM, luminescent cell viability assay, Promega): the cell plates were taken out on day 3 and day 5 and equilibrated to room temperature. 90 µL of CTG was added into each well, and the mixture was reacted at room temperature for 10 min in the dark. The luminescence value was read using a microplate reader and IC50 was calculated.

MDA-MB-468 (HER2-) = assay: In vitro cytotoxic activity screening (CTG assay); type: cell-based
Procedure: as §1, §2, §3

[2] = system: SKBR3 tumor cells (HER2+); assay: In vitro cytotoxic activity screening (CTG assay); type: cell-based
Procedure: as §1, §2, §3

[3] = Pharmacokinetic study in beagles, intravenous administration, plasma by LC/MS/MS; conditions: 0.5 mg/kg
Procedure: The pharmacokinetic behavior of the compound of the present disclosure in dogs was studied, and its pharmacokinetic profile was evaluated.
Six male beagles were divided into 2 groups of 3, purchased from Shanghai Medicilon Inc., and subjected to an administration test.
The collected blood samples were each placed in EDTA-K2 anticoagulant blood collection tubes, and the collected whole blood was placed on ice and centrifuged within 1 h to isolate the plasma (centrifugal force: 2200 g, centrifugal time: 10 min, 2-8 °C). Plasma samples were stored in a refrigerator at -80 °C prior to testing.
The content of the test compounds in beagle plasma after the injection was determined: 25 µL of beagle plasma at each time point after the administration was mixed with 50 µL (100 ng/mL) of internal standard solution camptothecin (China National Institutes for Food and Drug Control) and 200 µL of acetonitrile. The mixture was vortexed for 5 min and centrifuged for 10 min (3700 rpm), and 3-4 µL of the supernatant of the plasma sample was taken for LC/MS/MS assay (API4000 triple quadrupole tandem mass spectrometer (No. 2), Applied Biosystems, USA; Shimadzu, LC-30AD ultra high performance liquid chromatography system, Shimadzu, Japan).

SMILES	Maximum inhibition rate ([1]; A549, CTG) [%]	IC50 ([1]; Homo sapiens, A549) [pM]	IC50 (MDA-MB-468 (HER2-); Homo sapiens, MDA-MB-468) [pM]	Maximum inhibition rate (MDA-MB-468 (HER2-); MDA-MB-468, CTG) [%]	IC50 ([2]; Homo sapiens, SK-BR-3) [pM]	Maximum inhibition rate ([2]; SKBR3, CTG) [%]	Plasma concentration C5min ([3]; beagles, intravenous) [ng/mL]	concentration at 5 min ([3]; male, beagle, dog, in vivo, iv) [ng/mL]
C=C1C[C@@H]2CC[C@@]34C[C@H]5O[C@H]6[C@@H](O3)[C@H]3O[C@H](CC[C@@H]3O[C@H]6[C@H]5O4)CC(=O)C[C@@H]3[C@@H](OC)[C@@H](C[C@@H](CN)OC)O[C@H]3C[C@H]3O[C@@H](CC[C@@H]1O2)C[C@@H](C)C3=C [Compound 1]	81.34	515	183	88.01	205	96.87	82.1	
C=C1C[C@@H]2CC[C@@]34C[C@H]5O[C@H]6[C@@H](O3)[C@H]3O[C@H](CC[C@@H]3O[C@H]6[C@H]5O4)CC(=O)C[C@@H]3[C@@H](OC)[C@@H](C[C@H](O)CN)O[C@H]3C[C@H]3O[C@@H](CC[C@@H]1O2)C[C@@H](C)C3=C [Eribulin, eribulin, reference compound]								217
